Assay results from US12077503B2, “Substituted cyclic amides and their use as herbicides” (FMC CORPORATION, priority 2015, dated 2024).

Key:
Format in all cases: in vivo
[1] = system: Galium (catchweed bedstraw, Galium aparine); test: Test A postemergence; conditions: Galium, post-emergence, 240 h
How it was run: (§1)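 Greenhouse, ~10 d after spray; visual injury vs untreated controls, 0 = no effect, 100 = complete control. Preemergence: directed soil spray over planted seeds. Postemergence: plants 2–10 cm, 1–2 leaf stage. Loam/sand blend. Compound in non-phytotoxic solvent with surfactant.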

[2] = system: ragweed (common ragweed, Ambrosia elatior); test: Test A postemergence; conditions: Ambrosia artemisiifolia, post-emergence, 240 h
How it was run: as §1

[3] = system: giant foxtail (Setaria faberii); test: Test A postemergence; conditions: Setaria faberi, post-emergence, 240 h
How it was run: as §1

[4] = system: corn (Zea mays); test: Test A postemergence; conditions: Zea mays, post-emergence, 240 h
How it was run: as §1

[5] = system: blackgrass (Alopecurus myosuroides); test: Test A postemergence; conditions: Alopecurus myosuroides, post-emergence, 240 h
How it was run: as §1

[6] = system: wheat (Triticum aestivum); test: Test A postemergence; conditions: Triticum aestivum, post-emergence, 240 h
How it was run: as §1

[7] = system: pigweed (Amaranthus retroflexus); test: Test A postemergence; conditions: Amaranthus retroflexus, post-emergence, 240 h
How it was run: as §1

[8] = system: ryegrass, Italian (Italian ryegrass, Lolium multiflorum); test: Test A postemergence; conditions: Lolium multiflorum, post-emergence, 240 h
How it was run: as §1

[9] = system: barnyardgrass (Echinochloa crus-galli); test: Test A postemergence; conditions: Echinochloa crus-galli, post-emergence, 240 h
How it was run: as §1

[10] = system: Kochia (Kochia scoparia); test: Test A postemergence; conditions: Bassia scoparia, post-emergence, 240 h
How it was run: as §1

[11] = system: rice (Oryra sativa); test: Test B flooded paddy test; conditions: Oryza sativa, 250 g ai/ha, Flood; 0 to 100 scale where 0 is no effect and 100 is complete control; read-out: Rice plant response rating
How it was run: (§2)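 Flooding to 3 cm over soil accompanied treatment, which consisted of adding compound to the standing water around 2-leaf plants; depth was then maintained. Visual assessment versus controls followed at 13 to 15 d (scale 0–100, 0 meaning no effect).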

[12] = system: ducksalad (Heteranthera limosa); test: Test B flooded paddy test; conditions: Heteranthera limosa, 250 g ai/ha, Flood; 0 to 100 scale where 0 is no effect and 100 is complete control; read-out: Ducksalad plant response rating
How it was run: as §2

[13] = system: sedge, umbrella (small-flower umbrella sedge, Cyperus difformis); test: Test B flooded paddy test; conditions: Cyperus difformis, 250 g ai/ha, Flood; 0 to 100 scale where 0 is no effect and 100 is complete control; read-out: Sedge, Umbrella plant response rating
How it was run: as §2

[14] = system: barnyardgrass (Echinochloa crus-galli); test: Test B flooded paddy test; conditions: Echinochloa crus-galli, 250 g ai/ha, Flood; 0 to 100 scale where 0 is no effect and 100 is complete control; read-out: Barnyardgrass plant response rating
How it was run: as §2

[15] = system: ragweed (common ragweed, Ambrosia elatior); test: Test A preemergence; conditions: Ambrosia artemisiifolia, pre-emergence, 240 h, 0 to 100 scale where 0 is no effect and 100 is complete control, read-out: Ragweed plant response rating
How it was run: as §1

[16] = system: giant foxtail (Setaria faberii); test: Test A preemergence; conditions: Setaria faberi, pre-emergence, 240 h, 0 to 100 scale where 0 is no effect and 100 is complete control, read-out: Foxtail, Giant plant response rating
How it was run: as §1

[17] = system: pigweed (Amaranthus retroflexus); test: Test A preemergence; conditions: Amaranthus retroflexus, pre-emergence, 240 h, 0 to 100 scale where 0 is no effect and 100 is complete control, read-out: Pigweed plant response rating
[18] = system: ryegrass, Italian (Italian ryegrass, Lolium multiflorum); test: Test A preemergence; conditions: Lolium multiflorum, pre-emergence, 240 h, 0 to 100 scale where 0 is no effect and 100 is complete control, read-out: Ryegrass, Italian plant response rating
How it was run: as §1

[19] = system: barnyardgrass (Echinochloa crus-galli); test: Test A preemergence; conditions: Echinochloa crus-galli, pre-emergence, 240 h, 0 to 100 scale where 0 is no effect and 100 is complete control, read-out: Barnyardgrass plant response rating
How it was run: as §1

[20] = system: Kochia (Kochia scoparia); test: Test A preemergence; conditions: Bassia scoparia, pre-emergence, 240 h, 0 to 100 scale where 0 is no effect and 100 is complete control, read-out: Kochia plant response rating
How it was run: as §1

[21] = 125 g ai/ha, preemergence, approx. 10 d

C=C(C)c1ccc([C@H]2CN(C)C(=O)[C@@H]2C(=O)Nc2cccc(F)c2F)cc1 [Compound 1149]
pest or weed control at 125 g/ha ([1]; 125 g ai/ha, postemergence, visual injury on 0 to 100 scale (0 no effect, 100 complete control), approx. 10 d, read-out: Galium plant response rating): 50% | pest or weed control at 31 g/ha ([1]; Postemergence, 31 g ai/ha, visual injury after approx. 10 d, 0 to 100 scale, 0 no effect, 100 complete control, read-out: Plant response rating, Galium): 20% | pest or weed control at 125 g/ha ([2]; 125 g ai/ha, postemergence, visual injury vs untreated controls after approx. 10 d, 0 = no effect, 100 = complete control, read-out: Ragweed plant response rating (0 to 100 scale)): 0% | pest or weed control at 31 g/ha ([2]; Postemergence, 31 g ai/ha, visual injury after approx. 10 d, 0 to 100 scale, 0 no effect, 100 complete control, read-out: Plant response rating, Ragweed): 0% | pest or weed control at 125 g/ha ([3]; 125 g ai/ha, postemergence, visual injury on 0 to 100 scale (0 no effect, 100 complete control), approx. 10 d, read-out: Foxtail, Giant plant response rating): 80% | pest or weed control at 31 g/ha ([3]; Postemergence, 31 g ai/ha, visual injury after approx. 10 d, 0 to 100 scale, 0 no effect, 100 complete control, read-out: Plant response rating, Foxtail, Giant): 40% | plant injury at 125 g/ha ([4]; 125 g ai/ha, postemergence, visual injury on 0 to 100 scale (0 no effect, 100 complete control), approx. 10 d, read-out: Corn plant response rating): 0% | Corn plant response rating (crop injury, 0 = no effect, 100 = complete kill) at 31 g/ha ([4]; Postemergence, 31 g ai/ha, visual injury after approx. 10 d, 0 to 100 scale, 0 no effect, 100 complete control): 0% | pest or weed control at 125 g/ha ([5]; 125 g ai/ha, postemergence, visual injury on 0 to 100 scale (0 no effect, 100 complete control), approx. 10 d, read-out: Blackgrass plant response rating): 0% | pest or weed control at 31 g/ha ([5]; Postemergence, 31 g ai/ha, visual injury after approx. 10 d, 0 to 100 scale, 0 no effect, 100 complete control, read-out: Plant response rating, Blackgrass): 0% | plant injury at 125 g/ha ([6]; 125 g ai/ha, postemergence, visual injury vs untreated controls after approx. 10 d, 0 = no effect, 100 = complete control, read-out: Wheat plant response rating (0 to 100 scale)): 0% | plant injury at 31 g/ha ([6]; Postemergence, 31 g ai/ha, visual injury after approx. 10 d, 0 to 100 scale, 0 no effect, 100 complete control, read-out: Plant response rating, Wheat): 0% | pest or weed control at 125 g/ha ([7]; 125 g ai/ha, postemergence, visual injury vs untreated controls after approx. 10 d, 0 = no effect, 100 = complete control, read-out: Pigweed plant response rating (0 to 100 scale)): 0% | pest or weed control at 31 g/ha ([7]; Postemergence, 31 g ai/ha, visual injury after approx. 10 d, 0 to 100 scale, 0 no effect, 100 complete control, read-out: Plant response rating, Pigweed): 0% | pest or weed control at 125 g/ha ([8]; 125 g ai/ha, postemergence, visual injury vs untreated controls after approx. 10 d, 0 = no effect, 100 = complete control, read-out: Ryegrass, Italian plant response rating (0 to 100 scale)): 20% | pest or weed control at 31 g/ha ([8]; Postemergence, 31 g ai/ha, visual injury after approx. 10 d, 0 to 100 scale, 0 no effect, 100 complete control, read-out: Plant response rating, Ryegrass, Italian): 0% | pest or weed control at 125 g/ha ([9]; 125 g ai/ha, postemergence, visual injury on 0 to 100 scale (0 no effect, 100 complete control), approx. 10 d, read-out: Barnyardgrass plant response rating): 90% | pest or weed control at 31 g/ha ([9]; Postemergence, 31 g ai/ha, visual injury after approx. 10 d, 0 to 100 scale, 0 no effect, 100 complete control, read-out: Plant response rating, Barnyardgrass): 50% | pest or weed control at 125 g/ha ([10]; 125 g ai/ha, postemergence, visual injury on 0 to 100 scale (0 no effect, 100 complete control), approx. 10 d, read-out: Kochia plant response rating): 30% | pest or weed control at 31 g/ha ([10]; Postemergence, 31 g ai/ha, visual injury after approx. 10 d, 0 to 100 scale, 0 no effect, 100 complete control, read-out: Plant response rating, Kochia): 0% | pest or weed control at 250 g/ha [11]: 30% | pest or weed control at 250 g/ha [12]: 75% | pest or weed control at 250 g/ha [13]: 0% | pest or weed control at 250 g/ha [14]: 45% | pest or weed control at 31 g/ha ([15]; 31 g ai/ha, Preemergence): 0% | pest or weed control at 125 g/ha [15, 21]: 0% | pest or weed control at 31 g/ha ([16]; 31 g ai/ha, Preemergence): 80% | pest or weed control at 125 g/ha [16, 21]: 90% | pest or weed control at 31 g/ha ([17]; 31 g ai/ha, Preemergence): 0% | pest or weed control at 125 g/ha [17, 21]: 40% | pest or weed control at 31 g/ha ([18]; 31 g ai/ha, Preemergence): 0% | pest or weed control at 125 g/ha [18, 21]: 20% | pest or weed control at 31 g/ha ([19]; 31 g ai/ha, Preemergence): 70% | pest or weed control at 125 g/ha [19, 21]: 90% | pest or weed control at 31 g/ha ([20]; 31 g ai/ha, Preemergence): 0% | pest or weed control at 125 g/ha [20, 21]: 20%
